Reference: ChEMBL document CHEMBL1932945, “One-pot regioselective synthesis of tetrahydroindazolones and evaluation of their antiproliferative and Src kinase inhibitory activities” (Bioorg Med Chem Lett, 2012)
Activity calls are given as the source filed them. No cut-off for these calls is given here.

Legend:
[1] = tested on: SK-OV-3; experiment: Antiproliferative activity against human SKOV3 cells overexpressing c-Src at 50 uM after 72 hrs by Cell titer assay; format: functional; conditions: for inhibition at 50 µM: SK-OV-3, 72 h
[2] = tested on: HT-29; experiment: Antiproliferative activity against human HT-29 cells overexpressing c-Src at 50 uM after 72 hrs by Cell titer assay; format: functional; conditions: for inhibition at 50 µM: HT-29, 72 h
[3] = target: Proto-oncogene tyrosine-protein kinase Src (Homo sapiens, UniProt P12931); experiment: Inhibition of His6-tagged c-Src kinase domain using AEEEIYGEFEAKKKK as substrate pre-incubated for 10 mins before substrate addition measured after 30 mins by Transcreener ADP2 FI Assay
Chain of Proto-oncogene tyrosine-protein kinase Src (P12931 2-536 limits assumed): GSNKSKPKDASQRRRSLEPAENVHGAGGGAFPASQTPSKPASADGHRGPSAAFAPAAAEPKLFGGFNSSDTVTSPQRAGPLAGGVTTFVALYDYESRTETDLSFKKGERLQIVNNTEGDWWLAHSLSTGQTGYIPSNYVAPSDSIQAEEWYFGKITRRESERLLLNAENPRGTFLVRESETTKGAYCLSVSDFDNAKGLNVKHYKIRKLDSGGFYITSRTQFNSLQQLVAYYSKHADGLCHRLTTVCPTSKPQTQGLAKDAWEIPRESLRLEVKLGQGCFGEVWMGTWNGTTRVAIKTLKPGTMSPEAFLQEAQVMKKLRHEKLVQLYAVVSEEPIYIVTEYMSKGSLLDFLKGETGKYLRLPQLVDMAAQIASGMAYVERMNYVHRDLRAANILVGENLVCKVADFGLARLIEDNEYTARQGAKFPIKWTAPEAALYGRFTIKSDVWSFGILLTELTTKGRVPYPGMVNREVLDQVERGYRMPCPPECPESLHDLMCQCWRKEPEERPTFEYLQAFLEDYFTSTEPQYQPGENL

| IC50 [3] [µM] | Compound | inhibition [1] | inhibition [2] | inhibition at 50 µM [2] [%] | inhibition at 50 µM [1] [%] |
| --- | --- | --- | --- | --- | --- |
| > 150 | Cc1ccc(-n2nc3c(c2-c2ccc(C(C)(C)C)cc2)C(=O)CC(C)(C)C3)cc1 | Active | Active |  |  |
| 94.1 | COc1ccc(-n2nc3c(c2-c2ccc(Cl)c(Cl)c2)C(=O)CC(C)(C)C3)cc1 | Active | Active |  |  |
| > 150 | O=C1CCCc2nn(-c3ccccc3F)c(-c3ccc(Cl)c(Cl)c3)c21 | Active | Active |  |  |
| > 150 | CC1(C)OC(=O)c2c(nn(-c3ccc(Cl)cc3)c2C2CCCCC2)O1 | Active | Active |  |  |
| > 150 | COc1ccc(-n2nc3c(c2-c2ccc(C(C)(C)C)cc2)C(=O)CC(C)(C)C3)cc1OC | Active |  | 65 |  |
| 74.3 | Cc1ccc(-c2c3c(nn2-c2ccncc2)CC(C)(C)CC3=O)cc1Cl | Active |  | 65 |  |
| > 150 | CC1(C)OC(=O)c2c(nn(-c3ccc(Cl)cc3)c2-c2ccc(C(C)(C)C)cc2)O1 | Active | Active |  |  |
| > 150 | CC1(C)CC(=O)c2c(nn(-c3ccc[nH]3)c2-c2ccc(Cl)c(Cl)c2)C1 | Active | Active |  |  |
| > 150 | COc1ccc(-n2nc3c(c2-c2ccc(Cl)c(Cl)c2)C(=O)CCC3)cc1 | Active | Active |  |  |
| 35.1 | COc1ccc(-n2nc3c(c2-c2ccc(C(C)(C)C)cc2)C(=O)CC(C)(C)C3)cc1 | Active | Active |  |  |
| 62.1 | CC1(C)CC(=O)c2c(nn(-c3ccccc3)c2-c2ccc(Cl)c(Cl)c2)C1 | Active | Active |  |  |
| > 150 | Cc1ccc(-c2c3c(nn2-c2ccc[nH]2)CC(C)(C)CC3=O)cc1Cl | Active | Active |  |  |
| 57.7 | Cc1ccc(-n2nc3c(c2C2CCCCC2)C(=O)CCC3)cc1 | Active | Active |  |  |
| > 150 | Cc1ccc(-n2nc3c(c2-c2ccc(Cl)c(Cl)c2)C(=O)CCC3)cc1 |  |  | 48 | 49 |
| > 150 | O=C1CCCc2nn(-c3cccs3)c(-c3ccc(Cl)c(Cl)c3)c21 |  |  | 62 | 58 |
| 65.8 | O=C1CCCc2nn(-c3ccccc3)c(-c3ccc(Cl)c(Cl)c3)c21 | Active |  | 65 |  |
| 77.3 | CC1(C)CC(=O)c2c(nn(-c3cccs3)c2C2CCCCC2)C1 |  |  | 48 | 49 |

| IC50 [3] [µM] | Compound | inhibition [1] | inhibition [2] | inhibition at 50 µM [2] [%] | inhibition at 50 µM [1] [%] |
| --- | --- | --- | --- | --- | --- |
| > 150 | CC1(C)CC(=O)c2c(nn(-c3ccc(Cl)cc3)c2-c2ccc(C(C)(C)C)cc2)C1 | Active | Active |  |  |
| 86 | CC1(C)CC(=O)c2c(nn(-c3ccc(Cl)c(Cl)c3)c2-c2ccc(Cl)cc2)C1 | Active | Active |  |  |
| 82.7 | COc1cccc(-n2nc3c(c2-c2ccc(C)c(Cl)c2)C(=O)CCC3)c1 | Active | Active |  |  |
| > 150 | O=C1CCCc2nn(-c3ccc([N+](=O)[O-])cc3)c(-c3ccc(Cl)c(Cl)c3)c21 | Active | Active |  |  |
| > 150 | Cc1ccc(-n2nc3c(c2-c2ccc(Cl)c(Cl)c2)C(=O)CC(C)(C)C3)cc1 | Active | Active |  |  |
| > 150 | COc1ccc(-n2nc3c(c2-c2ccc(Cl)c(Cl)c2)C(=O)CCC3)cc1O | Active | Active |  |  |
| > 150 | CC1(C)CC(=O)c2c(nn(-c3ccc([N+](=O)[O-])cc3)c2-c2ccc(Cl)c(Cl)c2)C1 | Active | Active |  |  |
|  | COc1cccc2c1C(=O)c1c(O)c3c(c(O)c1C2=O)C[C@@](O)(C(=O)CO)C[C@@H]3O[C@H]1C[C@H](N)[C@H](O)[C@H](C)O1 | Active | Active |  |  |
| > 150 | O=C1CCCc2nn(-c3ccc(O)cc3)c(-c3ccc(Cl)c(Cl)c3)c21 | Active | Active |  |  |
| 58.4 | O=C1CCCc2nn(-c3cccc(Cl)c3)c(C3CCCCC3)c21 | Active | Active |  |  |
| 81 | O=C1CCCc2nn(-c3ccc(Cl)cc3)c(-c3ccc(Cl)c(Cl)c3)c21 | Active | Active |  |  |
| 66.6 | CC1(C)CC(=O)c2c(nn(-c3ccc(O)cc3)c2-c2ccc(Cl)c(Cl)c2)C1 | Active | Active |  |  |
| > 150 | COc1ccc(-n2nc3c(c2-c2ccc(Cl)c(Cl)c2)C(=O)CC(C)(C)C3)cc1O | Active | Active |  |  |
| > 150 | CC1(C)CC(=O)c2c(nn(-c3ccc([N+](=O)[O-])cc3)c2C2CCCCC2)C1 | Active | Active |  |  |
| 132 | Cc1ccc(-c2c3c(nn2-c2ccc(Cl)cc2)CC(C)(C)CC3=O)cc1Cl | Active | Active |  |  |
| > 150 | CC1(C)CC(=O)c2c(nn(-c3cccs3)c2-c2ccc(Cl)c(Cl)c2)C1 | Active | Active |  |  |
